Literature values as cited in patent US9849144B2 (Healios Oncology Nutrition, LLC, priority 2013, dated 2017).

Experiments:
CaCo-2 cells = conditions: glucose containing disaccharides
[1] = in vivo

SMILES	relative humidity up to which crystalline form is stable and remains free flowing	increase of GLN uptake (CaCo-2 cells)	daily dose with no safety or toxicity concerns [1]
OC[C@H]1O[C@H](O[C@H]2O[C@H](CO)[C@@H](O)[C@H](O)[C@H]2O)[C@H](O)[C@@H](O)[C@@H]1O [trehalose, α-D-glucopyranosyl-1,1-α-D-glucopyranoside]	up to 94 % relative humidity	a thousand fold	–
NC(=O)CC[C@H](N)C(=O)O [Glutamine, L-glutamine]	–	–	up to 40 grams a day
